Literature values, collected in patent US20150072881A1 (priority 2010, published 2015).
Entries after “also recorded” stand apart in the source; their conditions may differ. Ends that are not written are not given here.

Legend:
[1] = test system: genes (and gene products, eg., mRNA or protein); details: in vivo
Pomc = details: anterior pituitary cell line
dopamine = details: directly or indirectly
pronociceptin (PNOC) = details: hippocampus of alcoholics
[2] = test system: opiate receptor-like 1 (OPRL-1); details: amygdala of alcoholics
Sgk1 = details: Western blotting; morphine-induced
Tsc22d3 = details: Western blotting; drug-regulated gene
[3] = test system: PC12 clonal cell line from chromaffin adrenal cells
[4] = test system: Leptin receptor expression in VTA

For `N[C@@H]1C[C@H]1c1ccccc1` (racemic) [Tranylcypromine], the mRNA increase [1] is given as “dopamine D3 receptor mRNA in shell of the nucleus accumbens”.
For `Nc1ncnc2c1ncn2[C@@H]1O[C@@H]2COP(O)(=S)O[C@H]2[C@H]1O` (single isomer, unassigned) [Rp-cAMPS, adenosine-3′,5′ cyclinc monophosphorothioate, Rp-isomer], the “blockade of substance-induced mRNA increase” value [1] is given as “CART - effect attenuated by inhibition of PKA with H89 [N-(2-”.
For `CN(C)CCC=C1c2ccccc2CCc2ccccc21` [Amitriptyline], the mRNA increase [1] is given as “dopamine D3 receptor mRNA in shell of the nucleus accumbens;; also recorded: D1 and D2 receptors [1]”.
In the case of `CC(N)Cc1ccccc1` (stereo not drawn) [Amphetamine], the mRNA decrease [1] is listed as “Penk in CeA and anterior medial CPu [1]; also recorded: GluR1 in nucleus acumbens shell, GluR2 in core and shell [3]” and the mRNA increase [1] is listed as “Penk in frontal cortex; Pdyn in AMG [1]; also recorded: mGluR8 in rat dorsal and ventral striatum, as well as cortex,; also recorded: After 3 days of withdrawl, GluR1 in PFC [3]; also recorded: Mu receptors in VTA; Pdyn in CPu and NAc [1]”.
For `CCCCCCC(C)(C)c1ccc([C@@H]2C[C@H](O)CC[C@H]2CCCO)c(O)c1` [CP-55,940], the mRNA increase [1] is given as “Increased Penk in NAc and CPu, Tu and Pir, HPT (both PVN”.
In the case of `CNCCCN1c2ccccc2CCc2ccccc21` [Desipramine], the mRNA increase [1] is listed as “dopamine D3 receptor mRNA in shell of the nucleus accumbens”.
In the case of `COc1ccc2c(c1)[C@]13CCCC[C@@H]1[C@H](C2)N(C)CC3` [Dextromethorphan], the mRNA increase [1] is listed as 40 mg/kg ip in rats caused increase of tyrosine hydroxylase (TH).
In the case of `Cl.O=S(=O)(NCCNCC=Cc1ccc(Br)cc1)c1cccc2cnccc12` [H89, N-(2-[p-bromocinnamylamino]ethyl)-5-isoquinoline-sulfonamide hudrochloride], the “blockade of substance-induced mRNA increase” value [1] is given as “CART - effect attenuated by inhibition of PKA with H89 [N-(2-”.
For `CC(=O)Oc1ccc2c3c1O[C@H]1[C@@H](OC(C)=O)C=C[C@H]4[C@@H](C2)N(C)CC[C@@]341` [Heroin], the mRNA decrease [1] is listed as “DAT in paranigral nucleus and mesolimbic division of the ventral tegmental; also recorded: area. Reduction of Nurr1expression with age in heroin users [2]; also recorded: tyrosine hydroxylase in mesolimbic dopamine neurons [3]” and the mRNA increase [1] is listed as “heroin abuse. Express higher Penk mRNA [1]; also recorded: TH and alpha synuclein in VTA PN in heroin users with no; also recorded: Penk; NAc PENK in Met/Met (control) heroin abusers [3]”.
For `CN(C)CCCN1c2ccccc2CCc2ccccc21` [Imipramine], the mRNA increase [1] is given as “dopamine D3 receptor mRNA in shell of the nucleus accumbens;”.
For `CC(C)C[C@H](N)C(=O)O` [Leucine], the mRNA decrease [1] is given as “FTO in hypothalamus of rodents [1]”.
In the case of `CN[C@@H](C)Cc1ccccc1` [Methamphetamine], the mRNA increase [1] is listed as “Pdyn in HPT [1]; also recorded: Increased TNF-alpha in normal animals [2]”.
For `CCCCCCCCCC(=O)O[C@H]1CC[C@H]2[C@@H]3CCC4=CC(=O)CC[C@@H]4[C@H]3CC[C@]12C` [Nandrolone decanoate], the mRNA decrease [1] is given as “Dopamine D(1)-receptor subtype in the caudate putamen and nucleus” and the mRNA increase [1] is given as “Dopamine D(2) receptor at the lowest doeses in the caudate”.
In the case of `CC1NCCc2cc(O)c(O)cc21` (stereo not drawn) [R (+)- salsolinol], the mRNA decrease (Pomc) is listed as “POMC anterior pituitary cell line [1]” and the “cAMP level / production” value (cAMP) is listed as “whereas R(+)- SAL does not affect cAMP production [1]”.
For `CCCCC/C=C\C/C=C\C/C=C\C/C=C\CCCC(=O)N[C@H](C)CO` [R-methanandamide], the mRNA increase [1] is given as “Increased Penk in NAc and CPu, Tu and Pir, HPT (both PVN”.
In the case of `C[C@@H]1NCCc2cc(O)c(O)cc21` [S(−)-salsolinol], the mRNA decrease (Pomc) is given as “POMC anterior pituitary cell line [1]” and the “cAMP level / production” value (cAMP) is given as “Decrease in cAMP level occurs after treatment with S(−)-SAL,”.
For `Cc1c(C(=O)NN2CCCCC2)nn(-c2ccc(Cl)cc2Cl)c1-c1ccc(Cl)cc1` [SR 141716A], the “inhibition of THC-induced MAPK/ERK activation” value (MAPK/ERK; in vivo) is given as “accumbens. This activation is totally inhibited by selective”.
In the case of `CCCCCc1cc(O)c2c(c1)OC(C)(C)[C@@H]1CCC(C)=C[C@@H]21` [THC, Delta-tetrahydrocannabinol], the “activation (phosphorylation) of MAPK/ERK” value (MAPK/ERK; dorsal striatum and nucleus accumbens) is listed as “THC induces a progressive and transient activation”, the “effect on dopamine release or re-uptake” value (dopamine) is listed as “enhance release or block re-uptake of dopamine” and the mRNA increase [1] is listed as “Increased Penk in NAc and CPu, Tu and Pir, HPT (both PVN; also recorded: BDNF in reward center (nucleus accumbens, medial prefrontal”.
For `CCCN(CCC)C1Cc2cc(OC)c(OC)cc2C1` [U99194A], the mRNA increase [1] is listed as “c-fos (similar pattern to that produced by d-amphetamine) in”.
In the case of `CCO` [ethanol], the “effect on dopamine release or re-uptake” value (dopamine) is given as “enhance release or block re-uptake of dopamine”, the “pronociceptin (PNOC) mRNA decrease” value (pronociceptin (PNOC)) is given as “pronociceptin (PNOC), 1.7-fold in hippocampus of alcoholics” and the “opiate receptor-like 1 (OPRL-1) mRNA decrease” value [2] is given as “opiate receptor-like 1 (OPRL-1) 1.4-fold in amygdala of alcoholics [2]”.
In the case of `CN1CC[C@]23c4c5ccc(O)c4O[C@H]2[C@@H](O)C=C[C@H]3[C@H]1C5` [morphine], the “level of the Sgk1 protein (significant decrease)” value (Sgk1) is given as 0.75 fold and the “Tsc22d3 protein level (increase)” value (Tsc22d3) is given as “approximately 1.5 fold”.
In the case of `CN1CCCC1c1cccnc1` (stereo not drawn) [nicotine], the “effect on dopamine release or re-uptake” value (dopamine) is given as “enhance release or block re-uptake of dopamine”, the mRNA decrease [1] is given as “POMC in MBH which was observed after 21 days of spontaneous; also recorded: withdrawl from nicotine; Pdyn in ventral shell of NAc [1]” and the mRNA increase [1] is given as “Mu receptors in VTA; POMC in Arc; POMC in AL of the; also recorded: pituitary; Pdyn in CPu after nicotine withdrawl; Pdvn in HPT [1]; also recorded: c-fos in bed nucleus of stria terminalis, nucleus accumbens shell; also recorded: CREB phosphorylation when exposed to situation where; also recorded: MOR expression [4]; also recorded: c fos in limbic regions of adolescents [5]”. The mRNA decrease [3] was “Dopamine D2 receptor and tyrosine hydroxylase in PC12 clonal cell line”.
For `CC(N)Cc1ccc(Cl)cc1` (stereo not drawn) [para-chloroamphetamine], the mRNA decrease [1] is given as “[1] repeated stress in pre-treated rats led to downregulation of BDNF mRNA” and the mRNA increase [1] is given as “[1] repeated stress in pre-treated animals led to less”.
For `CCN1CCC[C@H]1CNC(=O)c1c(O)c(Cl)cc(Cl)c1OC` [raclopride], the “blockade of substance-induced mRNA increase” value [1] is given as “Cart in nucleus accumbens (effect blocked by both SCH-”.
In the case of “Leptin: Leptin administered directly to VTA”, the firing rate ([4]; VTA) is given as “reduction”, the “intracellular JAK-STAT pathway” value ([4]; VTA) is given as “activates” and the food intake ([4]; direct administration to VTA) is given as “Direct administration of leptin to VTA caused decreased food intake while”.
For “Substance P (RPKPQQFFGLM; not fully specified (C-terminus); ends and bridges not checked; UniProt P20366 58-68, looked up)”, the mRNA decrease [1] is listed as “D2 receptor in nucleus accumbens and frontal cortex [1]”.
